Key:
[1] = system: avian chorioallantoic membrane (CAM); format: in vivo, Leghorn fertilized eggs; conditions: fumagillin 5 μg/CAM; 48 h
Protocol: CGEN-G6 [SEQ ID NO: 6], CGEN-F9 [SEQ ID NO: 7], CGEN-F12 [SEQ ID NO: 8], CGEN-C6 [SEQ ID NO: 9], CGEN-A11 [SEQ ID NO: 10], and CGEN-G2 [SEQ ID NO: 11], were analyzed for their ability to affect angiogenesis using the in ovo avian chorioallantoic membrane (CAM) model of angiogenesis, which is widely used as a model to examine compounds affecting angiogenesis (Richardson and Singh 2003, Curr Drug Targets Cardiovasc Haematol Disord., 3(2):155-85). Two positive controls were used: fumagillin as a general anti-angiogenic compound, and Tie2 neutralizing antibody as anti-angiogenic inhibitor of the Ang/Tie2 pathway. Leghorn fertilized eggs were incubated for 4 days at 37° C., when a window was opened on the egg's shell, exposing the CAM. Two different doses of peptides (0.5 and 5 nmol/CAM), Tie-2 neutralizing antibody (R&D Systems, Cat#AF313, 10 μg/ml; 0.4 μg/CAM) or fumagillin (Tocris Bioscience, Cat #1768; 5 μg/CAM) were applied in a 40 μl volume inside an area of 1 cm^2 (restricted by a plastic ring) of the CAM on day 9 of embryo development. The appropriate vehicle controls were also tested. Forty-eight hours after treatment and subsequent incubation at 37° C., CAMs were fixed in situ, excised from the eggs, placed on slides and left to air-dry. Pictures were taken through a stereoscope equipped with a digital camera and the total length of the vessels was measured using image analysis software (NIH Image). For each group a total of 17-24 eggs from three different experiments were used. Data are presented as means±SEM and expressed as % of vehicle control. Statistical analysis (ANOVA followed by Dunnett's post-hoc test) was performed using Graph Pad.
FIG. 6 depict results obtained on vessel length with peptides CGEN-G6 [SEQ ID NO: 6], CGEN-F9 [SEQ ID NO: 7], CGEN-F12 [SEQ ID NO: 8], CGEN-C6 [SEQ ID NO: 9], CGEN-A11 [SEQ ID NO: 10], and CGEN-G2 [SEQ ID NO: 11], compared to Tie2 neutralizing antibody (Ab) and the anti-angiogenic compound fumagillin. Neutralizing Tie2 Ab blocked vessel length by 36%, while the angiogenesis inhibitor fumagillin blocked vessel length by 32%.

[2] = system: co-culture of early passage human endothelial cells with early passage human interstitial cells; assay: AngioKit in vitro angiogenesis, total tubule length; format: cell-based; conditions: 14 days, data not shown
[3] = system: oxygen-induced retinopathy (OIR); assay: Rodent model of oxygen-induced retinopathy (OIR); format: in vivo, Sprague Dawley rats
Source text: In order to assess the in viva efficacy of CGEN-A 11 [SEQ ID NO: 10] in a disease model of angiogenesis, a rodent model of oxygen-induced retinopathy (OIR) was used. Sprague Dawley rats were raised from birth through day PI4 in a variable oxygen atmosphere consisting of 24-hour alternating cycles of 50% and 10% oxygen. Rats were predisposed to pathological retinal angiogenesis as a result of oxygen treatment. Upon removal from the oxygen exposure chamber on day P14, rats received intravitreal injections of CGEN-A11 [SEQ ID NO: 10] in one of two doses: 15 μg/ml (low) or 75 μg/ml (high), 100 μg/ml recombinant rat Tie-2/Fc (R&D Systems, 3874-T2) or 100 μg/ml anti-VEGFR2 (Sigma, V1014) as positive controls, a combination of CGEN-A11 [SEQ ID NO: 10] at 30 μg/ml and anti-VEGFR2 (100 μg/ml), or vehicle (PBS) at a volume of 5 μl. An additional similar intravitreal administration took place 3 days later, on day P17. All pups were sacrificed on day P20. Both normal, intra-retinal vascular growth and abnormal, pre-retinal neovascular growth were assessed at six days post-exposure (P20) in ADPase-stained retinal flat-mounts, using widely published methods (e.g. Penn J S et al., 1991, Invest Ophthalmol Vis Sci. 32(4):1147; MicLeod D S et al., 1987, Microvasc Res. 33:257-269). All assessments were performed by a single, highly trained observer, who was blinded to treatment group. Areas of normal and abnormal vascular growth were measured via computer-assisted image analysis using high-resolution digital images of the stained retinal flat-mounts. The data were subjected to analysis of variance to determine statistical significance and a Dunnett's post hoc test to identify how the various treatment groups compared.
Data are depicted using percent total retinal area vascularized. Sample sizes (10, 11 or 12) are indicated on each bar. […] These differences yielded statistical significance, both at p<0.0001. Statistical significance was calculated using area (mm^2) measurements.
Data are depicted as area vascularized (mm^2). Sample sizes (10, 11 or 12) are indicated on each bar.

## CO[C@@H]1[C@H](OC(=O)/C=C/C=C/C=C/C=C/C(=O)O)CC[C@]2(CO2)[C@H]1[C@@]1(C)O[C@@H]1CC=C(C)C [fumagillin, reference compound]
[1]
  inhibition of vessel length: 32%

## Cc1ccc(C(=O)Nc2ccc(S(=O)(=O)O)c3cc(S(=O)(=O)O)cc(S(=O)(=O)O)c23)cc1NC(=O)c1cccc(NC(=O)Nc2cccc(C(=O)Nc3cc(C(=O)Nc4ccc(S(=O)(=O)O)c5cc(S(=O)(=O)O)cc(S(=O)(=O)O)c45)ccc3C)c2)c1 [suramin]
[2]; suramin 20 μM
  reduction of tubule length: 50%

## VEGF
[2]; VEGF 2 ng/mL, pro-angiogenic control
  induction of tubule length: 130%

B1: Tie-2/Fc: recombinant rat Tie-2/Fc (R&D Systems, 3874-T2), positive control (protein)
chain: AMDLILINSLPLVSDAETSLTCIASGWRPHEPITIGRDFEALMNQHQDPLEVTQDVTREWAKKVVWKREKASKINGAYFCEGRVRGEAIRIRTMKMRQQASFLPATLTMTVDKGDNVNISFKKVLIKEEDAVIYKNGSFIHSVPRHEVPDILEVHLPHAQPQDAGVYSARYIGGNLFTSAFTRLIVRRCEAQKWGPECNHLCTACMNNGVCHEDTGECICPPGFMGRTCEKACELHTFGRTCKERCSGQEGCKSYVFCLPDPYGCSCATGWKGLQCNEACHPGFYGPDCKLRCSCNNGEMCDRFQGCLCSPGWQGLQCEREGIQRMTPKIVDLPDHIEVNSGKFNPICKASGWPLPTNEEMTLVKPDGTVLHPKDFNHTDHFSVAIFTIHRILPPDSGVWVCSVNTVAGMVEKPFNISVKVLPKPLNAPNVIDTGHNFAVINISSEPYFGDGPIKSKKLLYKPVNHYEAWQHIQVTNEIVTLNYLEPRTEYELCVQLVRRGEGGEGHPGPVRRFTTASIGLPPPRGLNLLPKSQTTLNLTWQPIFPSSEDDFYVEVERRSVQKSDQQNIKVPGNLTSVLLNNLHPREQYVVRARVNTKAQGEWSEDLTAWTLSDILPPQPENIKISNITHSSAVISWTILDGYSISSITIRYKVQGKNEDQHVDVKIKNATITQYQLKGLEPETAYQVDIFAENNIGSSNPAFSHELVTLPESQAPADLGGGK
modifications: left off: a dimerising Fc or GST
notes: recombinant rat Tie-2/Fc (R&D Systems, 3874-T2), positive control
[3]; Tie-2/Fc intravitreal 100 μg/ml, P20, p=0.0436
  inhibition of pre-retinal neovascular growth (pathological angiogenesis): 61.9%
[3]; intravitreal 100 μg/ml, 5 μl, P14 and P17, assessed P20, p<0.0001
  intra-retinal normal vascular growth compared to PBS control: statistically significant increase
